What was measured:
Format in all cases: in vivo, human
[1] = Ankle/brachial artery pressure ratio (ABPI) in patient with intermittent claudication; settings: left leg; for ankle/brachial artery pressure ratio (ABPI): margin of error 0.1
Protocol: (§1) The stressed blood treatment used in the study involves the collection of 10 ml of a patient's venous blood into 2-ml of sodium citrate 3.13% as anticoagulant. The blood sample is transferred to a sterile, disposable low-density polyethylene vessel (model #V7002) for ex vivo treatment and is then exposed to the following three stimuli: • 1) An elevated temperature of 42.5° C.±1.0° C. at steady state controlled and monitored with a thermocouple; • 2) a gas mixture of medical oxygen containing 14.5±1.0 ug/ml of ozone, at a flow rate of 240±24 ml/min for 3 minutes; • 3) Ultra-violet light at a wavelength of 253.7 nm, and a total energy of 2.0 joules/cm^2.
(§2) The ex vivo treatment of the patient's blood sample is performed within a Blood Treatment Unit (model #V7001), generally described in U.S. Pat. No. 4,968,483 Mueller. The Unit regulates and monitors these physicochemical agents. The temperature of the blood is raised to 42.5° C., a process that takes up to 8 minutes depending upon the starting temperature of the blood sample. Before this temperature is reached the UV lights turn on, so that they reach maximum output by the time that the gas flow is initiated, which occurs when the temperature of the blood reaches 42.5° C. The total time of exposure to UV light is about 9 minutes. The gas mixture is bubbled through the blood sample at a flow rate of 240±24 ml/min for a period of 3 minutes while the temperature of the blood is maintained and UV irradiation continues. At the end of the treatment with the three stimuli (stressors), the blood is allowed to settle for 7 minutes. The device then signals that the treatment has been completed successfully. The entire process takes about 20 minutes.
A person with intermittent claudication (a cramping pain caused by arterial obstruction and indicative of the presence of a relatively advanced stage of atherosclerosis) in their left leg, was administered fluvastatin 20 mg. daily for hypercholesterolemia. Their initial ankle/brachial artery pressure ratio (ABPI) in the left leg was 0.60, normal values being greater than 0.9. […]

[2] = Claudication distance in patient with peripheral arterial occlusive disease; settings: regular daily lovastatin plus 10 i.m. treatments of 10 ml autologous stressed blood over 14 weeks
Protocol: (§3) In a separate investigation, a patient suffering from peripheral arterial occlusive disease (a consequence of atherosclerosis) and receiving a regular, normal daily dose of lovastatin received 10 treatments of autologous stressed blood prepared as described above (10 ml aliquots, administered intramuscularly) over a 14-week period. As a result, their posterior tibial/brachial pressure index increased from 0.69 to 0.85, a very significant change.

[3] = Posterior tibial/brachial and dorsalis/brachial pressure index in patient with peripheral arterial occlusive disease
Protocol: as §1, §2, §3

[4] = regular daily lovastatin plus 10 i.m. treatments of 10 ml autologous stressed blood over 14 weeks
[5] = regular daily lovastatin, before stressed blood treatments

Structure (SMILES)	ankle/brachial artery pressure ratio (ABPI) ([1]; fluvastatin 20 mg daily plus 9 i.m. treatments with 10 ml stressed autologous blood over 3 weeks)	ankle/brachial artery pressure ratio (ABPI) ([1]; fluvastatin 20 mg daily plus stressed blood, 2 months after the end of treatment schedule)	initial ankle/brachial artery pressure ratio (ABPI) ([1]; fluvastatin 20 mg daily, before stressed blood treatments, normal values greater than 0.9)	claudication distance (walking distance before experiencing cramping pain in the legs) [2]	dorsalis (foot artery)/brachial pressure index [3, 4]	posterior tibial/brachial pressure index [3, 4]	dorsalis (foot artery)/brachial pressure index [3, 5]	posterior tibial/brachial pressure index [3, 5]
CC(C)n1c(/C=C/C(O)CC(O)CC(=O)O)c(-c2ccc(F)cc2)c2ccccc21 (centres unmarked) [fluvastatin]	0.66	0.75	0.60					
CC[C@H](C)C(=O)O[C@H]1C[C@@H](C)C=C2C=C[C@H](C)[C@H](CC[C@@H]3C[C@@H](O)CC(=O)O3)[C@H]21 [lovastatin]				improved	0.85	0.85	0.77	0.69

From patent US7125897B1, “Combined therapies for atherosclerosis treatment” (Vasogen Ireland Limited, priority 1999, dated 2006)
